The text below walks through data of patent publication US5994323A (priority 1997, dated 1999).

Data set [1] in a line: Solubility in water / aqueous solutions. It is filed as physicochemical.
The nature of data set [2]: 1H NMR study of the interaction of vitamin B12 with clioquinol glucuronide. The class given is binding. To be noted: 2.6 mM vitamin B12 + 10 mM clioquinol glucuronide, buffered water pH 6.5, 20° C. On the procedure: Three different solutions were prepared and their ^1 H NMR spectra were recorded in a DRX 400 MHz spectrophotometer at 20° C. Solution a) contained free vitamin B12 (hydroxycobalamin) in a concentration of 2.6 mM.
In FIGS. 1A-1C the spectra of the three solutions a, b and c are presented for the aromatic region (5.5-9.8 ppm). The differences are quite small but obvious in the expansion shown of FIGS. 2A-2C and FIGS. 3B-3C respectively.

The conditions of data set [3]: assumed value; 1:1 mixtures of decane/clioquinol with PBS pH 7.4; cited from earlier work.
The next data set concerns Aβ. As to the kind of experiment: Resolubilization of amyloid aggregates in Alzheimer's disease brain homogenates (Western blot of supernatants). Conditions: frontal lobe neocortex, clioquinol/PBS at 100%, 10% and 1% (100%=800 nM). The class given is biochemical, human. For orientation: A western blot detects proteins with antibodies after separation by electrophoresis.
Data set [4] relates to vitamin B12 ([57Co]-cyanocobalamine). As to the kind of experiment: Influence of clioquinol on vitamin B12 in vivo: tissue radioactivity after [57Co]-cyanocobalamine injection. To be noted: mice, clioquinol 50 mg/kg/day injected for three days, then [57Co]-cyanocobalamine, sacrificed after two days, ±SEM. On the procedure: After three days, all of the mice were injected with [^57 Co]-cyanocobalamine. After two days, the animals were sacrificed, and the brain, liver and kidney were dissected and counted in a gamma-counter as thousand cpm/g tissue (wet weight)±SEM. The radioactivities in each of the groups are stated in Table 1 below: […]

Data set [5] can be described thus: Dissolution of clioquinol in n-decane and partition into PBS pH 7.4. It is filed as physicochemical. On the procedure:
The resolubilization of amyloid aggregates by clioquinol was studied. […] The undissolved material was allowed to settle. […] 100 ml of the (light yellow) supernatant was agitated together with 100 ml of PBS pH 7.4 and the phases allowed to separate. The PBS (lower phase) was collected and filtered to remove the residue which formed at the phase interface upon extraction with the organic solvent.

For data set [6] the following is noted: injected preparations, dosages of 10-20 mg/kg; cited from earlier work.
Data set [7] deals with zinc precipitated Aβ. Put plainly: Resolubilization of zinc-aggregated Aβ in TBS. The class given is biochemical. Conditions: 2.5 μM Aβ in TBS pH 7.4, 30 μM zinc (43% in solution), then 120 μM clioquinol; 95% soluble before zinc. How it is done: The ability of clioquinol to resolubilize zinc-aggregated Aβ was assessed. A 2.5 μM solution of Aβ in TBS at a pH of 7.4 was prepared. 95% of the Aβ was maintained in a soluble state.

The test system of data set [8] is zinc precipitated Aβ. As to the kind of experiment: Chelating ability: washing of zinc-aggregated synthetic Aβ on nylon membrane, anti-Aβ 6E10 / ECL. The class given is biochemical. Conditions: 10 ng synthetic Aβ aggregated with 25 μM ZnCl; wash with TBS containing 2 μM chelator; 100% for TBS alone. How it is done:
Samples of 10 ng synthetic Aβ were placed in microtitre wells and caused to aggregate by the addition of 25 μM ZnCl. The aggregates were then transferred to a 0.2 μm nylon membrane by filtration. […] The membrane was fixed, probed with the anti Aβ monoclonal antibody 6E10 and developed for exposure to ECL-film. The transmittance of the ECL-film was measured and the relative signal strength calculated based on 100% for TBS alone.

Turning to `COC(=O)[C@H]1O[C@@H](Oc2c(I)cc(Cl)c3cccnc23)[C@H](OC(C)=O)[C@@H](OC(C)=O)[C@@H]1OC(C)=O` [clioquinol glucuronide, methyl (5-chloro-7-iodo-quinolyl-2',3',4'tri-O-acetyl-glucopyranosid)uronate], the “Solubility in water / aqueous solutions” value in data set [1] was “soluble in water”. In addition, the “Interaction with vitamin B12 (shift of 1H NMR resonances)” value in data set [2] was “interaction”.
Turning to `Oc1c(I)cc(Cl)c2cccnc12` [clioquinol, 5-chloro-7-iodo-8 hydroxyquinoline], the “Partitioning coefficient with PBS” value in [3] is reported as 1/1750. Also, the “Solubility in water / aqueous solutions” value in [1] is “cannot be dissolved in aqueous solutions”. Also, the “Solubilization of Aβ from Alzheimer's disease brain homogenate” value with Aβ is recorded as “effective in promoting the solubilization of Aβ”. For the same compound, in data set [4] (control 9.4 ± 0.9), the Radioactivity in brain is given as 8.4 ± 1.5 thousand cpm/g tissue (wet wei. Moreover, the Radioactivity in liver in data set [4] (control 97 ± 8) was 85 ± 21 thousand cpm/g tissue (wet wei. Besides, in [4] (control 895 ± 207), the Radioactivity in kidney is on record as 252 ± 61 thousand cpm/g tissue (wet wei. Further, the “Fraction of clioquinol dissolved in n-decane” value in data set [5] (5.3 g suspended in 200 ml n-decane) is 2%. For the same compound, in [5] (PBS pH 7.4 extract of the n-decane supernatant, calculated from assumed 2% dissolution and partitioning coefficient), the “Concentration of clioquinol in the PBS” value is given as 800 nM. In [6], the “Concentration in the brain” value is on record as about 20 μl/ml. Besides, the “Soluble Aβ after addition to zinc precipitated Aβ” value in the data set on zinc precipitated Aβ [7] turned out to be 70%.
Consider `O=C(O)CN(CCN(CC(=O)O)CC(=O)O)CC(=O)O` [EDTA], for which the “Relative signal strength of Aβ remaining on membrane” value in the data set on zinc precipitated Aβ [8] worked out at 66%.
